{"source": "patent US10849898B2", "about": "“Treatment of relapsed and/or refractory solid tumors and non-Hodgkin's lymphomas” (CELGENE QUANTICEL RESEARCH, INC., priority 2016, dated 2020)", "key": {"NCI-H1417 SCLC xenograft [1]": {"test_system": "NCI-H1417 SCLC xenograft", "assay": "Efficacy in NCI-H1417 SCLC xenograft model (athymic nude mice)", "format": "in vivo"}, "LU2514 SCLC PDX": {"test_system": "LU2514 SCLC PDX", "assay": "Efficacy in LU2514 HuPrime SCLC patient derived xenograft", "format": "in vivo, mice", "details": "both LU2514 studies", "protocol": "Tumor growth inhibition analysis was performed on Day 28 post treatment, the last day of dosing."}, "LXFS 573 SCLC PDX [2]": {"test_system": "LXFS 573 SCLC PDX", "assay": "Efficacy in LXFS 573 SCLC PDX model", "format": "in vivo, mice"}, "LU2527 lung NEC PDX": {"test_system": "LU2527 lung NEC PDX", "format": "in vivo"}, "GA0087 gastric NEC PDX": {"test_system": "GA0087 gastric NEC PDX", "format": "in vivo"}, "MKL-1 hMCC xenograft": {"test_system": "MKL-1 hMCC xenograft", "format": "in vivo", "details": "5 mg/kg PO 5 on/2 off"}, "MS-1 hMCC xenograft": {"test_system": "MS-1 hMCC xenograft", "format": "in vivo", "details": "5 mg/kg PO 5 on/2 off"}, "MKL-1 cells": {"test_system": "MKL-1 cells", "assay": "Modulation of gene expression by RNA-seq", "format": "cell-based, human", "protocol": "Libraries were sequenced on an Illumina NextSeq® 500 System (Illumina, San Diego, Calif.) using 75 base paired-end RNA sequencing. Sequenced reads were mapped to the hg19 human genome build and differential expression was determined by analysis of variance across all replicates relative to the vehicle control.\nSequenced reads were mapped to the hg19 human genome build using the Spliced Transcripts Alignment to a Reference (STAR) software tool (OAlexander Dobin, 2009-2016) and transcript counts were normalized using the Empirical Analysis of Digital Gene Expression Data in R (edgeR) and Differential gene expression analysis based on the negative binomial distribution (DESeq2) software tools (OBioconductor, 2003-2017). Differential expression was determined by analysis of variance across all replicates relative to the vehicle control."}, "[3]": {"assay": "Hemodynamic and ECG parameters in anesthetized guinea pigs", "format": "in vivo, Dunkin Hartley guinea pigs", "description": "Animals were monitored throughout the experiment."}, "[4]": {"assay": "Pharmacokinetics after IV and oral administration", "format": "in vivo, CD-1 mice", "details": "Mouse, female, single IV 5 mg base/kg", "description": "(§1) Human PK parameters and exposures were predicted using allometric scaling. Mice and dogs were the species used for nonclinical toxicology assessment. […] Excretion of non-radiolabeled Compound A was studied in rats."}, "[5]": {"assay": "Pharmacokinetics after IV and oral administration", "format": "in vivo, Sprague Dawley rats", "details": "rats", "description": "as §1"}, "[6]": {"assay": "Metabolism in cryopreserved primary hepatocytes", "format": "in vitro ADME", "details": "mouse, rat, dog, monkey, human"}, "[7]": {"assay": "Excretion in bile duct cannulated rats", "format": "in vivo", "details": "IV"}, "[8]": {"assay": "4-week oral gavage pivotal toxicity study with 4-week recovery in dogs (with ECG and toxicokinetics)", "format": "in vivo, Beagle dogs", "protocol": "The QTc interval was calculated using the Fridericia method."}, "[9]": {"test_system": "Salmonella typhimurium TA98 and TA 100 strains", "assay": "Bacterial reverse mutation assay", "format": "cell-based", "details": "up to 500 μg/mL; with and without S9"}, "[10]": {"assay": "Exploratory toxicity study in mice", "format": "in vivo, CD-1 mice", "description": "Additional animals were included for TK evaluation."}, "LXFS 573 SCLC PDX [11]": {"test_system": "LXFS 573 SCLC PDX", "details": "for SS, number of study survivors: Day 133, N=8"}, "hERG potassium channel": {"target": "hERG potassium channel (Homo sapiens (Human), UniProt Q12809)", "sequence (Q12809 whole entry)": "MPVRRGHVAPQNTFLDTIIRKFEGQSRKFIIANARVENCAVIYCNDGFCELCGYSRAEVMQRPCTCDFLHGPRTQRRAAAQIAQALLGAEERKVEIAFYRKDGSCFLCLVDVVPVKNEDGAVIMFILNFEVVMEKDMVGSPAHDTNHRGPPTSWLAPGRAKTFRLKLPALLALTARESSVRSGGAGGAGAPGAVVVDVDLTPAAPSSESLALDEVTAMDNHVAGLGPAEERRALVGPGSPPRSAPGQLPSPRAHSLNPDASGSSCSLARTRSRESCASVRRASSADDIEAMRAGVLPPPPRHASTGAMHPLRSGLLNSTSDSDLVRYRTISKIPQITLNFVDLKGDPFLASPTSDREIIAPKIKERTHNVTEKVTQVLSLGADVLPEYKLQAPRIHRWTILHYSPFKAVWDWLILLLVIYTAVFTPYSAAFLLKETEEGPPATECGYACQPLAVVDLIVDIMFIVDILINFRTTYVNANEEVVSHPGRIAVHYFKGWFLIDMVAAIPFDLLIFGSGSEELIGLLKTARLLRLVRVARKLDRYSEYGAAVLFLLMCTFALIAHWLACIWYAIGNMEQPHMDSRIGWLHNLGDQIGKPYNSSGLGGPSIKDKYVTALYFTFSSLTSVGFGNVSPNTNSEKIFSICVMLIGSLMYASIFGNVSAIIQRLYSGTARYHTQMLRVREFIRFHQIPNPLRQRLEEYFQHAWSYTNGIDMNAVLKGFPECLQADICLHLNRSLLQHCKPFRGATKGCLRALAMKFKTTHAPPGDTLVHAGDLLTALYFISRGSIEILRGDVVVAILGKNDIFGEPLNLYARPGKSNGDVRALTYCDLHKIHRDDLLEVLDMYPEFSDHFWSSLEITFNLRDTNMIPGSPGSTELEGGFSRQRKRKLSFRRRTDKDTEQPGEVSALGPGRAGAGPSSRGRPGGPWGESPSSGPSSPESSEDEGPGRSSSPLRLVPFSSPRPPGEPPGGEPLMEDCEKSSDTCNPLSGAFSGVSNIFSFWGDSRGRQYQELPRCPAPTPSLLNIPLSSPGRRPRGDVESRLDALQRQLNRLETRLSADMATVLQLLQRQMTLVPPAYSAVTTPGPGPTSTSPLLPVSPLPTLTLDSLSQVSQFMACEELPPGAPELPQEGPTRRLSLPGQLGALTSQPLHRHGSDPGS", "details": "hERG current"}, "[12]": {"assay": "Exploratory toxicity study in dogs"}, "NCI-H1417 SCLC xenograft [13]": {"test_system": "NCI-H1417 SCLC xenograft", "details": "24 mg/kg Etoposide SC QD × 3"}, "[14]": {"details": "Etoposide at 24 mg/kg/day SC days 1-3 + Vehicle"}}, "note": "Where two headings read alike, the source gives them in different places.", "data": [{"smiles": "COc1ccc(-c2c(-c3ccc(C#N)c(F)c3)nc(N3CCC(N)CC3)n(C)c2=O)cc1F", "note": "[Compound A, 4-[2-(4-amino-piperidin-1-yl)-5-(3-fluoro-4-methoxy-phenyl)-1-methyl-6-oxo-1,6-dihydro-pyrimidin-4-yl]-2-fluoro-benzonitrile]", "values": [{"measurement": "mean body weight gain by end of study", "setting": "NCI-H1417 SCLC xenograft [1]; 2.5 mg base/kg PO QD×65", "value": 1, "unit": "%"}, {"measurement": "mean body weight gain by end of study", "setting": "NCI-H1417 SCLC xenograft [1]; 5 mg base/kg PO QD×65", "value": 7.5, "unit": "%"}, {"measurement": "tolerability", "setting": "NCI-H1417 SCLC xenograft [1]; 2.5 or 5 mg base/kg PO QD×65", "value": "well tolerated"}, {"measurement": "mean body weight losses", "setting": "LU2514 SCLC PDX", "value": "< 10", "unit": "%"}, {"measurement": "Median Tumor Volumes Day 1", "setting": "LXFS 573 SCLC PDX [2]; 5 mg base/kg PO QD × 28", "value": 108.4, "unit": "mm^3"}, {"measurement": "TGI end of study (Day 28)", "setting": "LXFS 573 SCLC PDX [2]; 5 mg base/kg oral", "value": 78, "unit": "%"}, {"measurement": "Median Tumor Volumes Day 1", "setting": "LXFS 573 SCLC PDX [2]; 7.5 mg base/kg PO QD × 28", "value": 113.2, "unit": "mm^3"}, {"measurement": "Median Tumor Volumes Day 1", "setting": "LXFS 573 SCLC PDX [2]; 10 mg base/kg PO QD × 28", "value": 113.8, "unit": "mm^3"}, {"measurement": "Median Tumor Volumes Day 0", "setting": "LU2527 lung NEC PDX; 1.5 mg base/kg PO QD × 46", "value": 148.2, "unit": "mm^3"}, {"measurement": "Median Tumor Volumes Day 0", "setting": "LU2527 lung NEC PDX; 5 mg base/kg PO QD × 46", "value": 151.8, "unit": "mm^3"}, {"measurement": "Median Tumor Volumes Day 0", "setting": "GA0087 gastric NEC PDX; Group 2, 1.5 mg base/kg PO QD × 53", "value": 128.9, "unit": "mm^3"}, {"measurement": "Median Tumor Volumes Day 0", "setting": "GA0087 gastric NEC PDX; Group 3, dose printed 1.5 mg base/kg (text: 5 mg/kg) PO QD × 53", "value": 127.6, "unit": "mm^3"}, {"measurement": "Median Tumor Volumes Day −3", "setting": "MKL-1 hMCC xenograft", "value": 65, "unit": "mm^3"}, {"measurement": "Median Tumor Volumes Day −3", "setting": "MS-1 hMCC xenograft", "value": 49, "unit": "mm^3"}, {"measurement": "downregulated genes changed in both hMCC lines at both concentrations (of 4303)", "setting": "MKL-1 cells; MKL-1 and MS-1, 10 and 100 nM, 3 days", "value": 17, "unit": "genes"}, {"measurement": "ST18 and FREM2 gene expression change (upregulated, dose-dependent)", "setting": "MKL-1 cells; both hMCC lines, 10 and 100 nM", "value": "at least 2 fold"}, {"measurement": "maximum suppression of HR vs vehicle", "setting": "[3]; 20 mg base/kg IV, 9 minutes into 10-minute infusion", "value": 19, "unit": "%"}, {"measurement": "effect on MAP or its components", "setting": "[3]; IV 5-20 mg base/kg vs time-matched vehicle", "value": "No notable effect"}, {"measurement": "QTcB interval increase at end of monitoring period", "setting": "[3]; after escalating IV doses", "value": 10, "unit": "%"}, {"measurement": "clearance", "setting": "[4]; CD-1, plasma", "value": 39, "unit": "mL/min/kg"}, {"measurement": "Vss", "setting": "[4]", "value": 7.31, "unit": "L/kg"}, {"measurement": "systemic clearance", "setting": "[5]", "value": "greater than liver blood flow"}, {"measurement": "metabolic stability in hepatocytes", "setting": "[6]", "value": "greater in rat and dog followed by human and monkeys while being least stable in mouse hepatocytes"}, {"measurement": "dose excreted intact in urine", "setting": "[7]; 24 hours", "value": "8.5 % of dose"}, {"measurement": "dose excreted intact in 24 hours (urine + bile)", "setting": "[7]; bile duct cannulated rats", "value": "26.3 % of the dose"}, {"measurement": "animals euthanized moribund", "setting": "[8]; 0.375 mg base/kg QW", "value": 1, "unit": "male"}, {"measurement": "animals euthanized moribund", "setting": "[8]; 0.75 mg base/kg QW", "value": "2 males and 1 female"}, {"measurement": "animals euthanized moribund", "setting": "[8]; 1.5 mg base/kg QW", "value": "3 males and 4 females"}, {"measurement": "recovery of findings after 4-week treatment-free period", "setting": "[8]; dog, in vivo", "value": "complete recovery"}, {"measurement": "animals euthanized moribund", "setting": "[8]; weekly oral administration, study Days 13 to 23", "value": 11, "unit": "animals"}, {"measurement": "mutagenicity", "setting": "[9]", "value": "negative"}, {"measurement": "increase in platelets on Day 8 vs end of first dosing period", "setting": "[10]; 10 mg/kg/day 5 days on/2 days off", "value": "> 2", "unit": "fold"}, {"measurement": "greatest reduction in neutrophil counts vs controls and pre-study values", "setting": "[10]; 5 days on/2 days off schedule", "value": "approximately 90%"}, {"measurement": "circulating platelets at end of study", "setting": "[10]; all dose levels", "value": "reduced"}, {"measurement": "tumor volume of survivor at study end", "setting": "LXFS 573 SCLC PDX [11]; Compound A 1 mg/kg in combination with etoposide 24 mg/kg", "value": 1430, "unit": "mm3"}, {"measurement": "survivors on Day 133", "setting": "LXFS 573 SCLC PDX [11]; Compound A 1 mg/kg in combination with etoposide 24 mg/kg, n=8", "value": 1, "unit": "animals"}, {"measurement": "MTV of survivors on Day 133", "setting": "LXFS 573 SCLC PDX [11]; Compound A 2.5 mg/kg in combination with etoposide 24 mg/kg", "value": 1121, "unit": "mm3"}, {"measurement": "survivors on Day 133", "setting": "LXFS 573 SCLC PDX [11]; Compound A 2.5 mg/kg in combination with etoposide 24 mg/kg, n=8", "value": 3, "unit": "animals"}, {"measurement": "MTV of survivors on Day 133", "setting": "LXFS 573 SCLC PDX [11]; Compound A 5 mg/kg in combination with etoposide 24 mg/kg", "value": 121, "unit": "mm3"}, {"measurement": "survivors on Day 133", "setting": "LXFS 573 SCLC PDX [11]; Compound A 5 mg/kg in combination with etoposide 24 mg/kg, n=8", "value": 8, "unit": "animals"}, {"measurement": "Median TTE", "setting": "LXFS 573 SCLC PDX [11]; Compound A at 5 mg/kg/day PO days 1-133", "value": 133, "unit": "days"}, {"measurement": "SS, number of study survivors", "setting": "LXFS 573 SCLC PDX [11]; Compound A at 5 mg/kg/day", "value": 7}, {"measurement": "study survivors on Day 133", "setting": "LXFS 573 SCLC PDX [11]; Compound A monotherapy 5 mg/kg, n=8", "value": "seven"}, {"measurement": "Hill coefficient", "setting": "hERG potassium channel", "value": 1.2}, {"measurement": "Compound A-related effects", "setting": "[12]; 0.25 mg/kg/dose QOD", "value": "generally no Compound A-related effects"}, {"measurement": "body weight loss of moribund female", "setting": "[12]; 0.5 mg/kg/day 5 days on/2 days off, Day 12", "value": 10.8, "unit": "%"}, {"measurement": "mortality", "setting": "[12]; 0.5 mg/kg/day 5 days on/2 days off, one female, Day 12", "value": "sacrificed moribund"}]}, {"smiles": "COc1cc([C@@H]2c3cc4c(cc3[C@@H](O[C@@H]3O[C@@H]5CO[C@@H](C)O[C@H]5[C@H](O)[C@H]3O)[C@H]3COC(=O)[C@H]23)OCO4)cc(OC)c1O", "note": "[Etoposide, etoposide, reference compound]", "values": [{"measurement": "SS, number of study survivors", "setting": "LXFS 573 SCLC PDX [11]; Etoposide at 24 mg/kg/day + Vehicle", "value": "0 (na)"}, {"measurement": "Median TTE", "setting": "LXFS 573 SCLC PDX [11]; [14]", "value": 63, "unit": "days"}, {"measurement": "T-C", "setting": "LXFS 573 SCLC PDX [11]; [14]", "value": 21, "unit": "days"}, {"measurement": "% TGD", "setting": "LXFS 573 SCLC PDX [11]; etoposide monotherapy 24 mg/kg", "value": 50, "unit": "%"}, {"measurement": "TGD", "setting": "LXFS 573 SCLC PDX [11]; etoposide monotherapy 24 mg/kg", "value": 21, "unit": "days"}, {"measurement": "Median TTE", "setting": "LXFS 573 SCLC PDX [11]; etoposide monotherapy 24 mg/kg SC daily Days 1-3", "value": 63, "unit": "days"}, {"measurement": "% TGD", "setting": "NCI-H1417 SCLC xenograft [13]", "value": 97, "unit": "%"}, {"measurement": "Median TTE", "setting": "NCI-H1417 SCLC xenograft [13]", "value": 50, "unit": "days"}, {"measurement": "T − C", "setting": "NCI-H1417 SCLC xenograft [13]", "value": 24, "unit": "days"}]}]}
